In test [1] the target is T1, IκBα ubiquitinating enzyme (SCF complex: ROC1, Cullin1, Skp1, His-TrCP1; with E1, UbcH5b) (Homo sapiens, UniProt P62877+P63208+Q13616+Q9Y297).
T1 construct: His (polyhistidine); made in house; host or cells: insect cells (baculovirus) for the SCF complex and His-E1; E. coli for His-UBCH5b
Kind of test: Measurement of ubiquitinating enzyme activity (IκBα ubiquitination, time-resolved fluorescence with Eu(K)-labeled ubiquitin and XL665-labeled anti-GST antibody). The test is classed as biochemical. The method, boiled down: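 Human SCF complex with E1 and UbcH5b ubiquitinated GST-IκBα pre-phosphorylated by IKKβ (2 mM ATP, pH 7.4, 1 h, RT), with Eu(K)-ubiquitin, 30 min RT. Stopped with EDTA, XL665 anti-GST added for 2 h; 665/620 nm TR-FRET ratio. % inhibition versus no-compound control and no-SCF blank gave IC50.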

The test system of test [2] is ICAM-1 expression in HT-29 cells. Briefly: Measurement of ICAM-1 expressing activity (TNFα-induced ICAM-1 expression, cell ELISA). In kind it is cell-based. Conditions: Homo sapiens, Table 6, cell activity inhibition test by method (3), read-out: EVALUATION (IC50 class, inhibition of cell activity). Put shortly: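 Cell ELISA read-out (anti-ICAM-1, peroxidase secondary, TMBZ, A450) after methanol fixation. Before that, HT-29 cells had 30 min compound exposure at 37°C (final DMSO 0.5%) followed by 4 h with 30 ng/mL human TNFα.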
A general note: ELISA stands for enzyme-linked immunosorbent assay.

[3] abbreviates: enzyme activity inhibition test, method (1), Table 5, read-out: EVALUATION
Setting [4] is: read-out: EVALUATION, enzyme activity inhibition test, method (1), Table 5.

Like-named read-outs stand apart in the source and are kept apart here.

T1 sequence (Q9Y297 whole entry): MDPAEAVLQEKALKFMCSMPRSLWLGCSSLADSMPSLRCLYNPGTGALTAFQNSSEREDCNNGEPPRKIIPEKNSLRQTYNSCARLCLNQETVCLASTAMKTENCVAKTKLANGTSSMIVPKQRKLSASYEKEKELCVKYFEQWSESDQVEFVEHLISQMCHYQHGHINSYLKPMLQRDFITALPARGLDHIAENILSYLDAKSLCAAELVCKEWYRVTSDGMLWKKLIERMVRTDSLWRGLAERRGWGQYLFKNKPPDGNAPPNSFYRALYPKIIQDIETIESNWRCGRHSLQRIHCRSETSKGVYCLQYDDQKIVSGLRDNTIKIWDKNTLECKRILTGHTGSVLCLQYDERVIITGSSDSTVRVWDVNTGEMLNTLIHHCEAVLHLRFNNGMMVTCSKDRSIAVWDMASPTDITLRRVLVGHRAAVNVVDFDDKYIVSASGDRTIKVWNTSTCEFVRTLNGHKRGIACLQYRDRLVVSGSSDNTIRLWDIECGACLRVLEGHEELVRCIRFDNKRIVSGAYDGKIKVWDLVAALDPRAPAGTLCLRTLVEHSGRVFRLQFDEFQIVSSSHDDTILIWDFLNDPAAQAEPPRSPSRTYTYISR
T1 sequence (Q13616 whole entry): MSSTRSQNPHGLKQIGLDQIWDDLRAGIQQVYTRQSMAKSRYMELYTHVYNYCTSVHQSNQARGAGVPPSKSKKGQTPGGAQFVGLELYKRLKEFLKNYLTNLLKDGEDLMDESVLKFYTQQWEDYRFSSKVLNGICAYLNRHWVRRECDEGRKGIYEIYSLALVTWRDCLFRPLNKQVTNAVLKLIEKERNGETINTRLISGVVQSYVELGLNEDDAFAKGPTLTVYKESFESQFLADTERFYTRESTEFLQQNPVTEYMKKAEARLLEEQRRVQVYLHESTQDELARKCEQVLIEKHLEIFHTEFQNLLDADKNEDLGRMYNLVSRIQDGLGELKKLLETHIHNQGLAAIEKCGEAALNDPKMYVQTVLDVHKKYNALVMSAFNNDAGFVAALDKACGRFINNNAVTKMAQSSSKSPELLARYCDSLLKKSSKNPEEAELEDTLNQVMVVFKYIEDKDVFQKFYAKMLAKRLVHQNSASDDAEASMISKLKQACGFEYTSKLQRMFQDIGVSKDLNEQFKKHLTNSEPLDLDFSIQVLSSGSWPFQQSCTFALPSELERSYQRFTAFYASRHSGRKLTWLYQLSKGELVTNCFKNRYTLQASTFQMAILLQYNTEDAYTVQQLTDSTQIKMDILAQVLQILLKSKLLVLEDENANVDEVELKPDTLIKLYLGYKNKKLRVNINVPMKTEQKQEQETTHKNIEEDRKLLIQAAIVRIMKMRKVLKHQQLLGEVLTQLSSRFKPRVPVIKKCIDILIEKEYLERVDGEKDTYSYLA
T1 sequence (P63208 whole entry): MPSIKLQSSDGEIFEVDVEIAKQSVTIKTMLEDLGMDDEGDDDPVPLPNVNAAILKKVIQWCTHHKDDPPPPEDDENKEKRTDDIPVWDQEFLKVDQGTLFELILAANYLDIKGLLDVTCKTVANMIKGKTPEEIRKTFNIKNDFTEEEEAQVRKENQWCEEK
T1 sequence (P62877 whole entry): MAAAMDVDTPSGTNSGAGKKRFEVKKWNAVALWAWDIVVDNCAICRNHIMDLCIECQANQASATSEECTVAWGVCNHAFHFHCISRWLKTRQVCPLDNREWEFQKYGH

On to `CCCCC1=NN(c2ccc(C(=O)O)cc2)C(=O)/C1=C\c1ccc(N2CCN(C)CC2)cc1` [Compound 340], for which the figures for the IC50 in test [1] (setting [3]) and in test [2] were less than 10 µM and 10 to 20 µM, respectively.

For the compound `O=C(O)c1cccc(N2N=C(c3ccoc3)/C(=C/c3ccc(-c4ccccc4F)o3)C2=O)c1` [Compound 484], the results for the IC50 in test [1] (setting [3]) and in test [2] were less than 10 µM and 10 to 20 µM, respectively.

For the compound `O=C(O)c1ccc(N2N=C(C3CC3)/C(=C/c3ccc4ccccc4c3)C2=O)cc1` [Compound 313], the IC50 in test [1] (setting [3]) was less than 10 µM; in test [2] it was 10 to 20 µM.

For `CC1=NN(c2cccc(C(=O)N3CCN(c4ccc(O)cc4)CC3)c2)C(=O)/C1=C\c1ccc2[nH]ccc2c1` [Compound 375], the IC50 is less than 10 µM in test [1] (setting [3]) and less than 40 µM in test [2].

Regarding `O=C(O)c1ccc(N2N=C(Cc3ccccc3)/C(=C/c3ccc(-n4ccnc4)cc3)C2=O)cc1` [Compound 271], the IC50 is 10 to 20 µM in test [1] (setting [3]) and less than 40 µM in test [2].

Turning to `CN1CCN(c2ccc(/C=C3\C(=O)N(c4ccc(C(=O)O)cc4)N=C3Cc3ccccc3)cc2)CC1` [Compound 274], the IC50 in test [1] (setting [3]) was 10 to 20 µM; in test [2] it was less than 40 µM.

For the compound `CC1=NN(c2cccc(C(=O)O)c2)C(=O)/C1=C\c1ccc2c(ccn2C(=O)c2ccco2)c1` [Compound 531], the IC50 was less than 10 µM in test [1] (setting [3]) and less than 40 µM in test [2].

With `COCCC1=NN(c2ccc(C(=O)O)cc2)C(=O)/C1=C\c1ccc(-c2ccccc2F)o1` [Compound 522], the IC50 in test [1] (setting [3]) and in test [2] was less than 10 µM throughout.

In the case of `Cn1cc(-c2ccc(/C=C3\C(=O)N(c4cccc(C(=O)O)c4)N=C3c3ccoc3)o2)cn1` [Compound 491], the IC50 in test [1] (setting [3]) is less than 10 µM; in test [2], 10 to 20 µM.

As for `CC1=NN(c2cccc(C(=O)O)c2)C(=O)/C1=C\c1ccc(N2CCOCC2)cc1` [Compound 441], the results for the IC50 in test [1] (setting [3]) and in test [2] were less than 10 µM and less than 40 µM, respectively.

Take `O=C(O)c1ccc(N2N=C(c3ccoc3)C(=Cc3ccc(N4CCN(c5ccccc5)CC4)cc3)C2=O)cc1` [Compound 433]: the IC50 in test [1] and in test [2] was less than 10 µM in each case.

As to `COC(=O)c1ccc(COc2ccc(C=C3C(=O)N(c4ccc(C(=O)O)cc4)N=C3C)cc2OC)cc1` [Compound 347], the IC50 in test [1] was less than 10 µM; in test [2] it was 10 to 20 µM.

With `CC1=NN(c2ccc(S(N)(=O)=O)cc2)C(=O)C1=Cc1ccc(NC(=O)c2ccccc2F)cc1` [Compound 225], the figures for the IC50 in test [1] and in test [2] were less than 10 µM and less than 40 µM, respectively.

Regarding `CC1=NN(c2ccc(C(=O)O)cc2)C(=O)/C1=C\c1ccc(N2CCCCC2)cc1` [Compound 350], the IC50 in test [1] (setting [3]) is less than 10 µM; in test [2] it was less than 40 µM.

With `CC1=NN(c2ccccc2)C(=O)/C1=C\c1ccc(N2CCNCC2)cc1` [Compound 200], the results for the IC50 in test [1] (setting [3]) and in test [2] were 10 to 20 µM and less than 40 µM, respectively.

`O=C(O)c1cccc(N2N=C(c3ccoc3)C(=Cc3ccc4[nH]ccc4c3)C2=O)c1` [Compound 475, 3-(3-Furan-3-yl-4-(1H-indol-ylmethylene)-5-oxo-4,5-dihydropyrazol-1-yl) benzoic acid]: the values for the IC50 in test [1] (setting [4]) and in test [2] were less than 10 µM and 10 to 20 µM, respectively.

Take `CC1=NN(c2ccc(S(N)(=O)=O)cc2)C(=O)C1=Cc1ccc(N2CCN(C(=O)OC(C)(C)C)CC2)cc1` [Compound 179]: the IC50 in test [1] is 10 to 20 µM; in test [2], less than 40 µM.

For `O=C(O)c1ccc(N2N=C(C3CC3)/C(=C/c3ccc4[nH]ccc4c3)C2=O)cc1` [Compound 482], the values for the IC50 in test [1] (setting [3]) and in test [2] were less than 10 µM and less than 40 µM, respectively.

Consider `CC1=NN(c2ccc(C(=O)O)cc2)C(=O)/C1=C\c1ccc2c(c1)OCCO2` [Compound 259], for which the IC50 in test [1] (setting [3]) and in test [2] was less than 10 µM throughout.

Turning to `CC1=NN(c2ccc(C(=O)N3CCCC3CO)cc2)C(=O)/C1=C\c1ccc2c(c1)OCCO2` (stereo not drawn) [Compound 410], the IC50 was less than 10 µM in test [1] (setting [3]) and 10 to 20 µM in test [2].

Consider `CC1=NN(c2cccc(C(=O)O)c2)C(=O)/C1=C\c1ccc2c(ccn2Cc2ccccc2)c1` [Compound 494], for which the IC50 is less than 10 µM in test [1] (setting [3]) and less than 40 µM in test [2].

On to `COc1ccc(C2=NN(c3ccc(C(=O)O)cc3)C(=O)/C2=C\c2ccc3c(c2)OCCO3)cc1OC` [Compound 283], for which the IC50 in test [1] (setting [3]) and in test [2] was less than 10 µM each time.

`CC1=NN(c2cccc(C(=O)O)c2)C(=O)/C1=C\c1ccc(-c2ccccc2F)o1` [Compound 486]: the IC50 was 10 to 20 µM in test [1] (setting [3]) and less than 40 µM in test [2].

Take `COCC1=NN(c2ccc(C(=O)O)cc2)C(=O)C1=Cc1ccc(OCc2ccccc2)c(OC)c1` [Compound 234, 4-[4-(Benzyloxy-3-methoxy-benzylidine)-3-methoxymethyl-5-oxo-4,5-dihydroxy-pyrazol-1-yl] benzoic acid]: the IC50 in test [1] (setting [4]) and in test [2] was less than 10 µM throughout.

As to `CC1=NN(c2ccc(C(=O)O)cc2)C(=O)/C1=C\c1ccc2c(ccn2Cc2c(C)noc2C)c1` [Compound 497], the IC50 in test [1] (setting [3]) is less than 10 µM; in test [2] it was 10 to 20 µM.

Regarding `CC1=NN(c2ccc(S(N)(=O)=O)cc2)C(=O)/C1=C\c1ccc2cc[nH]c2c1` [Compound 148], the IC50 is less than 10 µM in test [1] (setting [3]) and less than 40 µM in test [2].

For the compound `CC1=NN(c2cccc(C(=O)O)c2)C(=O)/C1=C\c1ccc(N2CCCC2)cc1` [Compound 472], the IC50 in test [1] (setting [3]) and in test [2] was 10 to 20 µM throughout.

Turning to `O=C(O)c1ccc(N2N=C(c3ccccn3)/C(=C/c3ccc(-c4ccccc4F)o3)C2=O)cc1` [Compound 290], the results for the IC50 in test [1] (setting [3]) and in test [2] were less than 10 µM and 10 to 20 µM, respectively.

For `CC1=NN(c2ccc(C(=O)O)cc2)C(=O)/C1=C\c1cc2ccccc2o1` [Compound 429], the IC50 was less than 10 µM in test [1] (setting [3]) and less than 40 µM in test [2].

On to `CC1=NN(c2ccc(C(=O)O)cc2)C(=O)/C1=C\c1cccc(O)c1` [Compound 542], for which the results for the IC50 in test [1] (setting [3]) and in test [2] were less than 10 µM and less than 40 µM, respectively.

Take `CC1=NN(c2ccc(S(N)(=O)=O)cc2)C(=O)C1=Cc1ccc(OCc2ccc([N+](=O)[O-])cc2)cc1` [Compound 216]: the IC50 in test [1] was less than 10 µM; in test [2], less than 40 µM.

Consider `COC(=O)N1CCN(c2ccc(/C=C3\C(=O)N(c4ccccc4)N=C3c3ccoc3)cc2)CC1` [Compound 14], for which the IC50 in test [1] (setting [3]) was less than 10 µM; in test [2], less than 40 µM.

In the case of `CC1=NN(c2ccc(S(N)(=O)=O)cc2)C(=O)/C1=C\c1ccc(-c2ccccc2)cc1` [Compound 117], the IC50 in test [1] (setting [3]) is less than 10 µM; in test [2], 10 to 20 µM.

Take `CCCCC1=NN(c2ccc(C(=O)O)cc2)C(=O)/C1=C\c1ccc(-n2cncn2)cc1` [Compound 306]: the IC50 in test [1] (setting [3]) and in test [2] was 10 to 20 µM throughout.

`CC1=NN(c2ccc(C(=O)O)cc2)C(=O)/C1=C\c1ccc(N2CCN(C(=O)OC(C)(C)C)CC2)cc1` [Compound 436]: the results for the IC50 in test [1] (setting [3]) and in test [2] were 10 to 20 µM and less than 40 µM, respectively.

On to `O=C1/C(=C\c2ccc3c(c2)OCCO3)C(C2CC2)=NN1c1ccccc1` [Compound 77], for which the IC50 in test [1] (setting [3]) was less than 10 µM; in test [2], less than 40 µM.

Regarding `CC1=NN(c2ccc(S(N)(=O)=O)cc2)C(=O)C1=Cc1cccc2ccccc12` [Compound 119], the IC50 is 10 to 20 µM in test [1] and less than 10 µM in test [2].

`COc1cc(C=C2C(=O)N(c3ccc(C(=O)O)cc3)N=C2c2ccc(F)cc2)ccc1OCc1ccccc1` [Compound 326]: the IC50 was less than 10 µM in test [1] and less than 40 µM in test [2].

With `CC1=NN(c2cccc(C(=O)O)c2)C(=O)C1=Cc1cc2ccccc2o1` [Compound 428], the figures for the IC50 in test [1] and in test [2] were 10 to 20 µM and less than 40 µM, respectively.

Regarding `COC(=O)N1CCN(c2ccc(/C=C3\C(=O)N(c4ccc(C(=O)O)cc4)N=C3c3ccc(OC)c(OC)c3)cc2)CC1` [Compound 279], the IC50 in test [1] (setting [3]) is less than 10 µM; in test [2], 10 to 20 µM.

Consider `O=C(O)c1ccc(N2N=C(c3ccoc3)/C(=C/c3cccc4nccnc34)C2=O)cc1` [Compound 329], for which the IC50 in test [1] (setting [3]) and in test [2] was 10 to 20 µM each time.

As to `CC1=NN(c2cccc(S(N)(=O)=O)c2)C(=O)/C1=C\c1ccc2[nH]ccc2c1` [Compound 134], the IC50 was less than 10 µM in test [1] (setting [3]) and less than 40 µM in test [2].

For the compound `CC1=NN(Cc2cccc(O)c2)C(=O)/C1=C\c1ccc(-c2ccccc2F)o1` [Compound 185], the values for the IC50 in test [1] (setting [3]) and in test [2] were less than 10 µM and 10 to 20 µM, respectively.

For `O=C(O)c1ccc(N2N=C(c3cccnc3)/C(=C/c3ccc(CO)o3)C2=O)cc1` [Compound 308], the IC50 in test [1] (setting [3]) is less than 10 µM; in test [2] it was less than 40 µM.

For the compound `CC1=NN(c2cccc(C(=O)N3CCC(O)CC3)c2)C(=O)/C1=C\c1ccc2[nH]ccc2c1` [Compound 373], the IC50 in test [1] (setting [3]) was less than 10 µM; in test [2], less than 40 µM.

With `COc1cc(/C=C2\C(=O)N(c3ccc(C(=O)O)cc3)N=C2C)ccc1OCC1CC1` [Compound 390], the IC50 is less than 10 µM in test [1] (setting [3]) and 10 to 20 µM in test [2].

As to `CC1=NN(c2cccc(C(=O)N3CCCC3CO)c2)C(=O)/C1=C\c1ccc2[nH]ccc2c1` (stereo not drawn) [Compound 372], the IC50 was less than 10 µM in test [1] (setting [3]) and 10 to 20 µM in test [2].

As to `CCCCC1=NN(c2ccc(C(=O)O)cc2)C(=O)/C1=C\c1ccc(-n2cccn2)cc1` [Compound 305], the IC50 in test [1] (setting [3]) is less than 10 µM; in test [2] it was 10 to 20 µM.

The values are drawn from patent EP1900728A1 (Genecare Research Institute Co., Ltd, priority 2005, dated 2006).
